Measured values published in patent US20160295860A1, “A NOVEL COMPOSITION AND METHOD OF USE TO CONTROL PATHOGENS AND PREVENT DISEASES IN SEEDS” (AGRI-NÉO INC., priority 2013, published 2016).

Legend:
[1] = system: Total count Aerobic bacteria; assay: Total aerobic count on seeds, grains and spices sprayed with sanitizing solutions; assay type: cell-based
Method: (§1) Seeds were mechanically cleaned and spread in stainless steel containers. Each 100 grams seeds were sprayed with 4 ml total solutions descried above via conventional trigger vaporizer. This solution is equivalent to 40 L disinfecting solution total sprayed on 1-ton seeds. Seeds, grains and spices were selected to represent all families and types of seeds, grains and spices. Another criteria was to select seeds and grains contaminated with a high count of total aerobic bacteria, yeast, mold, E. coli, Salmonella sp. and other pathogenic microorganisms.
(§2) Seeds, grains and spices treated were: • Whole dried pea, • Split pea dried, • Pea fiber, • Vanilla, • Chia, • Sprouted flax and chia, • Flax, • Hemp, and • Black pepper seeds

Y&M (yeast, mold) = assay: Yeast and mold (Y&M) count on seeds, grains and spices sprayed with sanitizing solutions; assay type: cell-based; settings: for Y&M, n1: replicate n1; for Y&M, n2: replicate n2
Method: as §1, §2

[2] = Whole dried pea, 40 L per 1 ton
[3] = Whole split pea, 40 L per 1 ton

Structure (SMILES)	Conclusion in words on bactericidal efficacy ([1]; Black pepper, 40 L per 1 ton)	Conclusion in words on bactericidal efficacy ([1]; Hemp, 40 L per 1 ton)	Conclusion in words on bactericidal efficacy ([1]; Pea fiber, 40 L per 1 ton)	Conclusion in words on bactericidal efficacy ([1]; Vanilla, 40 L per 1 ton)	Conclusion in words on bactericidal efficacy [1, 2]	Conclusion in words on bactericidal efficacy [1, 3]	Conclusion in words on bactericidal efficacy ([1]; Sprouted flax and chia)	Y&M, Av (Y&M (yeast, mold); Pea fiber)	Y&M, n1 (Y&M (yeast, mold); Pea fiber)	Y&M, n2 (Y&M (yeast, mold); Pea fiber)	Y&M, Av (Y&M (yeast, mold); Whole dried pea)	Y&M, n1 (Y&M (yeast, mold); Whole dried pea)	Y&M, n2 (Y&M (yeast, mold); Whole dried pea)	Y&M, Av (Y&M (yeast, mold); Whole split pea)	Y&M, n1 (Y&M (yeast, mold); Whole split pea)	Y&M, n2 (Y&M (yeast, mold); Whole split pea)
CC(=O)OO [Peracetic acid]	strong bactericidal agent	strong bactericidal agent	strong bactericidal agent	strong bactericidal agent	strong bactericidal agent	strong bactericidal agent										
CCO [2- Alcohol - ethanol, ethanol]	not a strong bactericidal agent	not a strong bactericidal agent	not a strong bactericidal agent	not a strong bactericidal agent	not a strong bactericidal agent	not a strong bactericidal agent	bactericidal agent but not very strong	Y&M not detected	n1, n2 not detected	n1, n2 not detected	Y&M not detected	n1, n2 not detected	n1, n2 not detected	Y&M not detected	n1, n2 not detected	n1, n2 not detected
